Results as given in US12569482B2, “Methods and compositions for treating idiopathic pulmonary fibrosis” (priority 2018, dated 2026).
“Also recorded” adds a separate entry of the source. Where two headings read alike, the source gives them in different places.

How the values were obtained:
[1] = Plasma drug levels, Example 2; assay type: in vivo, C57BL/6 mice; conditions: C57BL/6, mouse
Method: On Day 5, the mice with bleomycin treatment were divided into four groups at random (referred to as Group 2-5, n=10), and orally administered with vehicle (DMSO: PEG400=1:9, V/V), itraconazole (Kangmanlin Co. Ltd. prepared in DMSO/PEG400 with a final concentration of 1.5 mg/mL), nintedanib (Kangmanlin Co. Ltd., prepared in DMSO/PEG400 with a final concentration of 6.0 mg/mL), and itraconazole+nintedanib (prepared in DMSO/PEG400 with final concentrations of 1.5 mg/mL and 6.0 mg/mL) at daily doses of 10 mL/kg, 15 mg/kg, 60 mg/kg and 15+60 mg/kg, respectively. The mice in the Control group was administered with vehicle (DMSO/PEG400) at a daily dose of 10 mL/kg. Mice body weights were measured and recorded on Day 1, 5, 12, 19 and 21.
Two hours post drug administration on Day 21, all animals were anaesthetized with pentobarbital (i.p., 60 mg/kg). Blood sample, bronchoalveolar lavage fluid (BALF) and lung lobes were collected from each mouse and then processed following the protocols in Example 1.

[2] = Drug concentrations in plasma and lung tissues after 5 days of oral or inhalation dosing; assay type: in vivo, healthy male mice; conditions: male, mouse; for Kp at 2 h: lung tissue and plasma, read-out: levels in lung tissues relative to plasma; for concentration at 2 h: q.d., 5 days, two hours after last dose
Method: In a separate experiment, three groups of healthy male mice were treated with itraconazole for 5 consecutive days. Animals in Group A were orally administered with itraconazole in DMSO:PEG400 (1:9, v/v) at a daily dose of 15 mg/kg, while mice in Group B and C were subject to 3-min inhalation treatment of itraconazole of 15 mg/mL and 50 mg/mL, respectively. Two hours after the last dose, plasma samples and lung tissues were collected as described above. These samples were sent to an independent bioanalytical service lab to determine the levels of itraconazole, and results were summarized in Table 3.

[3] = Plasma exposure levels in the bleomycin-induced lung fibrosis mouse study; assay type: in vivo
Excerpt: Because the relevancy to human efficacy in bleomycin-induced lung fibrosis mouse model, though well established in preclinical studies (Moeller, 2008), has not been established, a new version of the bleomycin-induced lung fibrosis mouse study protocol was designed, with marketed anti-fibrotic drugs, namely pirfenidone and nintedanib, as positive controls.

[4] = cited from earlier work
[5] = cited from earlier work; remark: listed apart in the source
[6] = mice, cited from earlier work
[7] = system: sol elastase activity of CF sputum; conditions: unprocessed CF sputum directly treated; cited from earlier work
[8] = system: bleomycin-induced lung fibrosis; test: Bleomycin induced IPF mouse model, Example 1 (oral nintedanib or fluconazole); assay type: in vivo, C57BL/6 mice; conditions: nintedanib 60 mg/kg
Method: Forty male C57BL/6 mice (Nanjing Biomedical Research Institute of Nanjing University) were randomly divided into two groups on Day 1, 10 animals for one group (referred to as Control group or Group 1) and 30 for the other. The animals in the Control group were administered intratracheally with PBS at a dose of 2 mL/kg while the others were administered intratracheally with bleomycin (Cat #HY-17565, MCE) at a dose of 0.66 mg/kg.
(§1) On Day 5, the mice with bleomycin treatment were divided into three groups at random (referred to as Group 2-4, n=10), and orally administered with vehicle (0.5% Methyl cellulose), nintedanib (Kangmanlin Co. Ltd., prepared in 0.5% Methyl cellulose with a final concentration of 6.0 mg/mL) and fluconazole (Kangmanlin Co. Ltd., prepared in 0.5% Methyl cellulose with a final concentration of 7.0 mg/mL) at daily doses of 10 mL/kg, 60 mg/kg and 70 mg/kg, respectively. The mice in the Control group was administered with vehicle (0.5% Methyl cellulose) at a daily dose of 10 mL/kg. Mice body weights were measured and recorded on Day 1, 5, 12, 19 and 25.
(§2) Two hours post drug administration on Day 25, all animals were anaesthetized with pentobarbital (i.p., 65 mg/kg). Blood samples were collected from orbital vein, put in tubes pre-coated with EDTA-K2 (KANG JIAN, Cat #KJ202), centrifuged at 4000×g for 10 minutes at 4° C. and then stored at −80° C. for determination of plasma drug levels. Then, the trachea was exposed, and bronchoalveolar lavage fluid (BALF) was collected from each mouse by injecting 0.3 mL of saline into trachea close to the larynx for three times. After BALF collection, mice were perfused with saline, and all four lung lobes were collected from each mouse, fixed in 10% NBF solution, embedded in paraffin and cut into 5 μm-thick sections. The sections were de-paraffinized with xylene and ethanol and subject to Haematoxylin-Eosin, Masson Trichrome and α-SMA IHC staining.
The bronchoalveolar lavage fluid of 20 μL was mixed with 20 μL of trypan blue to determine the cell number. Then, the cells in the BALF were concentrated using a Cytospinat at 1,000 rpm for 5 minutes, smeared on slides and then stained with Diff-Quik stain. Cell types (alveolar macrophages, neutrophils, or lymphocytes) were determined by counting at least 200 cells using a standard hemocytometer. The rest BALFs were centrifuged and supernatants were collected and stored at −80° C. for soluble collagen analysis.
The Haematoxylin-Eosin staining was used to identify and quantitate the inflammatory cells in the tissues, and the total inflammation area was calculated using the AperioScanScope software.
The sections with Masson Trichrome staining were scored for pulmonary fibrosis according to the modified Ashcroft fibrosis rating criteria in Table 1 below. Each lung lobe was divided into 4 parts according to the distance from the main bronchus, i.e., the upper, upper middle, lower middle and lower parts, which were scored separately and averaged later.
α-SMA is a well characterized marker in fibrosis. Immunohistochemistry staining of α-SMA is often used to characterize and quantitate the tissue fibrosis. Increased staining of α-SMA often reflects accumulation of collagen-producing myofibroblasts. Before α-SMA IHC staining, the de-paraffinized sections were treated with citrate antigen retrieval solution (0.01 N citrate buffer, pH 6.0) at 100° C. for 10 minutes, and then incubated with rabbit polyclonal anti-α-SMA (1:400, ab5694, Abcam) for 1 hour followed by goat anti-rabbit HRP (K4003, Dako). DAB substrate kit (DAB0031, Maixin, Shanghai) was used for chromogenic staining. All sections were further counter-stained with hematoxylin. […] α-SMA staining areas were calculated using the AperioImageScope program.
Statistical analysis was performed using student's T-test, one-way or two-way ANOVA followed by post-hoc Dunnett's test if significant. […] The difference was considered significant when p<0.05. *p<0.05, **p<0.01, ***[…].

[9] = design: species or system C57BL/6 mice; conditions: C57BL/6, mouse, in vivo, 2 h
Method: as §1
as §2, with “The sections were de-paraffinized with xylene and ethanol and subject to Haematoxylin-Eosin, Masson Trichrome and α-SMA IHC staining.” left out

Molecule: CCC(C)n1ncn(-c2ccc(N3CCN(c4ccc(OCC5COC(Cn6cncn6)(c6ccc(Cl)cc6Cl)O5)cc4)CC3)cc2)c1=O (centres unmarked) [itraconazole]
- concentration at 2 h ([1]; oral, Day 21, itraconazole 15 mg/kg, nintedanib 60 mg/kg p.o. daily, read-out: two-hour post dosing plasma level, single agent): 700 ng/mL
- concentration at 2 h ([1]; po, Day 21, 15+60 mg/kg p.o. daily, read-out: two-hour post dosing plasma drug level, itraconazole and nintedanib combined in administration): 518 ng/mL
- Kp at 2 h ([2]; inhaled, 5 days of inhalation at 15 mg/mL for 3 min): ~7.3
- Kp at 2 h ([2]; inhaled, inhalation dose of 50 mg/mL for 3 min): 8.3
- Kp at 2 h ([2]; 5 days of oral dosing at 15 mg/kg): ~1.3
- concentration at 2 h ([2]; lung tissue, inhaled, Group B: i.h., 15 mg/mL for 3 min, read-out: Lung Tissue Concentrations): 590 ng/mL
- concentration at 2 h ([2]; lung tissue, inhaled, Group C: i.h., 50 mg/mL for 3 min, read-out: Lung Tissue Concentrations): 1400 ng/mL
- concentration at 2 h ([2]; lung tissue, po, Group A: p.o., 15 mg/kg, read-out: Lung Tissue Concentrations): 172 ng/mL
- concentration at 2 h ([2]; plasma, inhaled, Group B: i.h., 15 mg/mL for 3 min, read-out: Plasma Concentrations): 80.9 ng/mL
- concentration at 2 h ([2]; plasma, inhaled, Group C: i.h., 50 mg/mL for 3 min, read-out: Plasma Concentrations): 168 ng/mL
- concentration at 2 h ([2]; plasma, po, Group A: p.o., 15 mg/kg, read-out: Plasma Concentrations): 133 ng/mL
- plasma exposure level ([3]; itraconazole alone at 7.5 mg/kg): 394 ± 66 ng/mL
- plasma exposure level ([3]; itraconazole alone at 15 mg/kg): 899 ± 192 ng/mL
- solubility ([4]; in 0.1N HCl): 4 to 6 µg/mL
- solubility ([4]; in water): 0.001 to 0.004 µg/mL
- Cmax at steady state ([5]; 200 mg (PO/BID)): 2000 ng/mL
- Cmax at steady state ([5]; 200 mg (PO/QD)): 1100 ng/mL
- time to steady state plasma levels ([5]; post oral administration, multiple dosing): around 15 days
- time at which peak plasma levels are reached ([5]; post oral dose): 2 to 5 h
- serum levels relative to pulmonary concentrations ([6]; aerosolized dose): 25 to 50 times lower
- time to effective anti-fungal pulmonary concentrations ([6]; after completion of nebulization): ≤ 60 min

Molecule: DNase
- increase of sol elastase activity [7]: 190%

Molecule: OC(Cn1cncn1)(Cn1cncn1)c1ccc(F)cc1F [fluconazole]
- reduction of lung inflammation area ([8]; Haematoxylin-Eosin staining, fluconazole 70 mg/kg p.o. daily): not observed
- reduction of modified Ashcroft score ([8]; Masson Trichrome staining, fluconazole 70 mg/kg p.o. daily): not observed
- anti-IPF activities / fibrosis related endpoint measurements (overall) ([8]; fluconazole 70 mg/kg daily dose): did not show detectable changes; also recorded: failed to show any significant anti-IPF activities
- BALF collagen levels ([8]; oral daily Day 5-25, fluconazole 70 mg/kg, vs bleomycin + vehicle): No collagen level reduction
- reduction of α-SMA staining area ([8]; α-SMA IHC, fluconazole 70 mg/kg p.o. daily): not observed
- plasma level relative to that of itraconazole at 15 mg/kg [9]: over 62 fold

B1: reduced rhTrx: stable reduced form of recombinant human thioredoxin (protein, UniProt P10599 2-105, looked up)
Thioredoxin: VKQIESKTAFQEALDAAGDKLVVVDFSATWCGPCKMIKPFFHSLSEKYSNVIFLEVDVDDCQDVASECEVKCMPTFQFFKKGQKVGEFSGANKEKLEATINELV
modifications: reduced form
- increase of sol elastase activity [7]: 60%
